Results on five compounds are retold here after article PMC7749635 (2021).

Common to all, as to test: in-line probing
Experiment [1] concerns 65 pnuC (RNA, riboswitch) GGAAAAUCUAUAGAGCGUUGCGUCCGAAAGUCUAAACAGACACGGCUCUUUAAAAACAAAAGGAGAAG
Conditions: 20 mM Mg2+, 100 mM K+, 50 mM Tris-HCl pH 8.3, ~23 °C.

The subject of experiment [2] is 85 pnuC (RNA, riboswitch) GGAGGAGAAGCGGUUCAAAUCGAAAAUCUAUAGAGCGUUGCGUCCGAAAGUCUAAACAGACACGGCUCUUUAAAAACAAAAGGAGAAG
Conditions: 20 mM Mg2+, 100 mM K+; 50 mM Tris-HCl pH 8.3, ~23 °C; tested at 0.1 and 1 mM.

Experiment [3] has as its system M2 (A60U) (RNA, riboswitch) GGAAAAUCUAUAGAGCGUUGCGUCCGAAAGUCUAAACAGACUCGGCUCUUUAAAAACAAAAGGAGAAG
Particulars: 20 mM Mg2+, 100 mM K+; 50 mM Tris-HCl pH 8.3, ~23 °C; tested at 1 mM.

Experiment [4] deals with M1 (G35U) (RNA, riboswitch) GGAAAAUCUAUAGAGCUUUGCGUCCGAAAGUCUAAACAGACACGGCUCUUUAAAAACAAAAGGAGAAG
Conditions: 20 mM Mg2+, 100 mM K+; 50 mM Tris-HCl pH 8.3, ~23 °C; tested at 1 mM.

Turning to `NC(=O)c1ccc[n+]([C@@H]2O[C@H](COP(=O)([O-])OP(=O)(O)OC[C@H]3O[C@@H](n4cnc5c(N)ncnc54)[C@H](O)[C@@H]3O)[C@@H](O)[C@H]2O)c1`, the KD in experiment [1] (apparent) was ~ 100 µM.

For `Cc1cc2nc3c(=O)[nH]c(=O)nc-3n(C[C@H](O)[C@H](O)[C@H](O)COP(=O)(O)O)c2cc1C`, the binding entry in experiment [2] was “no”.

As to `O=C(O)c1cccnc1`, in experiment [1] (tested at 0.1 and 1 mM), the binding entry is “no”.

For `NC(=O)c1ccc[n+]([C@@H]2O[C@H](COP(=O)(O)O)[C@@H](O)[C@H]2O)c1`, the binding entry in experiment [3] is given as “no”; in experiment [4] it was “no”; in experiment [2] it was “yes”.

On to `Cc1ncc(C[n+]2csc(CCOP(=O)(O)OP(=O)(O)O)c2C)c(N)n1`, for which the binding result in experiment [2] is on record as “no”.
